Assay [1] concerns the target Dual specificity mitogen-activated protein kinase kinase 7 (Homo sapiens) (UniProt O14733). Nature of the assay: Inhibition of wild-type human full length MKK7 (M1 to R419 residues) expressed in mammalian expression system at 10 uM by Kinomescan method relative to control.
Assay [2] addresses Platelet-derived growth factor receptor alpha (Homo sapiens) (UniProt P16234). Kind of assay: Inhibition of wild-type human partial length PDGFRA (V575 to D1002 residues) expressed in mammalian expression system at 10 uM by Kinomescan method relative to control.
Assay [3] concerns the target Wee1-like protein kinase 2 (Homo sapiens) (UniProt P0C1S8). Nature of the assay: Inhibition of wild-type human partial length WEE2 (M204 to K492 residues) expressed in bacterial expression system at 10 uM by Kinomescan method relative to control.
The target of assay [4] is Serine/threonine-protein kinase Nek1 (Homo sapiens) (UniProt Q96PY6). Nature of the assay: Inhibition of wild-type human partial length NEK1 (M1 to K278 residues) expressed in bacterial expression system at 10 uM by Kinomescan method relative to control.
In assay [5] the target is Serine/threonine-protein kinase LATS1 (Homo sapiens) (UniProt O95835). Kind of assay: Inhibition of wild-type human partial length LATS1 (Q678 to V1130 residues) expressed in bacterial expression system at 10 uM by Kinomescan method relative to control.
Assay [6] addresses Phosphatidylinositol 4,5-bisphosphate 3-kinase catalytic subunit gamma isoform (Homo sapiens) (UniProt P48736). Nature of the assay: Inhibition of wild-type human partial length PIK3CG (S144 to A1102 residues) expressed in mammalian expression system at 10 uM by Kinomescan method relative to control.
Assay [7] has as its target SRSF protein kinase 1 (Homo sapiens) (UniProt Q96SB4). Kind of assay: Inhibition of wild-type human full length SRPK1 (M1 to S655 residues) expressed in bacterial expression system at 10 uM by Kinomescan method relative to control.
Assay [8] addresses Mitogen-activated protein kinase 12 (Homo sapiens) (UniProt P53778). Kind of assay: Inhibition of wild-type human full length p38-gamma (M1 to L367 residues) expressed in mammalian expression system at 10 uM by Kinomescan method relative to control.
Assay [9] has as its target Serine/threonine-protein kinase TBK1 (Homo sapiens) (UniProt Q9UHD2). Nature of the assay: Inhibition of wild-type human full length TBK1 (M1 to L729 residues) expressed in mammalian expression system at 10 uM by Kinomescan method relative to control.
The target in assay [10] is Serine/threonine-protein kinase RIO2 (Homo sapiens) (UniProt Q9BVS4). Nature of the assay: Inhibition of wild-type human partial length RIOK2 (M1 to D313 residues) expressed in mammalian expression system at 10 uM by Kinomescan method relative to control.
For assay [11], the system named is Serine/threonine-protein kinase B-raf (Homo sapiens), P15056 [V600E]. Nature of the assay: Inhibition of human partial length BRAF V600E mutant (S429 to E741 residues) expressed in mammalian expression system at 1 uM by Kinomescan method relative to control.
Assay [12] addresses Tyrosine-protein kinase HCK (Homo sapiens) (UniProt P08631). Kind of assay: Inhibition of wild-type human full length HCK (M22 to P526 residues) expressed in bacterial expression system at 1 uM by Kinomescan method relative to control.
Assay [13] concerns Proto-oncogene tyrosine-protein kinase receptor Ret (Homo sapiens), P07949 [V804M]. Kind of assay: Inhibition of human partial length RET V804M mutant (E713 to D1014 residues) expressed in bacterial expression system at 1 uM by Kinomescan method relative to control.
Assay [14] deals with Dual serine/threonine and tyrosine protein kinase (Homo sapiens) (UniProt Q6XUX3). Nature of the assay: Inhibition of wild-type human full length RIPK5 (M1 to T929 residues) expressed in mammalian expression system at 1 uM by Kinomescan method relative to control.
Assay [15] concerns the target Tyrosine-protein kinase ABL1 (Homo sapiens) (UniProt P00519). Kind of assay: Inhibition of wild-type human non-phosphorylated ABL1 (S229 to K512 residues) expressed in mammalian expression system at 1 uM by Kinomescan method relative to control.
Assay [16] deals with Myosin light chain kinase, smooth muscle (Homo sapiens) (UniProt Q15746). Nature of the assay: Inhibition of wild-type human full length MYLK (M854 to E1845 residues) expressed in mammalian expression system at 1 uM by Kinomescan method relative to control.
In assay [17] the target is Casein kinase I isoform gamma-2 (Homo sapiens) (UniProt P78368). Kind of assay: Inhibition of wild-type human full length CSNK1G2 (M1 to K415 residues) expressed in bacterial expression system at 1 uM by Kinomescan method relative to control.
Assay [18] has as its system Tyrosine-protein kinase ABL1 (Homo sapiens), P00519 [T315I]. Nature of the assay: Inhibition of human non-phosphorylated ABL1 T315I mutant (S229 to K512 residues) expressed in mammalian expression system at 1 uM by Kinomescan method relative to control.
Assay [19] has as its target Ephrin type-A receptor 2 (Homo sapiens) (UniProt P29317). Nature of the assay: Inhibition of wild-type human partial length EPHA2 (T593 to V891 residues) expressed in bacterial expression system at 1 uM by Kinomescan method relative to control.
Assay [20] has as its target Vascular endothelial growth factor receptor 2 (Homo sapiens) (UniProt P35968). Nature of the assay: Inhibition of wild-type human partial length VEGFR2 (R787 to P1253 residues) expressed in mammalian expression system at 1 uM by Kinomescan method relative to control.
Assay [21] deals with Mitogen-activated protein kinase kinase kinase 9 (Homo sapiens) (UniProt P80192). Nature of the assay: Inhibition of wild-type human partial length MLK1 (V88 to W426 residues) expressed in bacterial expression system at 1 uM by Kinomescan method relative to control.
Assay [22] addresses Interleukin-1 receptor-associated kinase 1 (Homo sapiens) (UniProt P51617). Kind of assay: Inhibition of wild-type human partial length IRAK1 (R194 to S712 residues) expressed in mammalian expression system at 1 uM by Kinomescan method relative to control.
Assay [23] deals with Serine/threonine-protein kinase N1 (Homo sapiens) (UniProt Q16512). Nature of the assay: Inhibition of wild-type human partial length PKN1 (E598 to C948 residues) expressed in bacterial expression system at 1 uM by Kinomescan method relative to control.
Assay [24] deals with Mast/stem cell growth factor receptor Kit (Homo sapiens), P10721 [V559D]. Kind of assay: Inhibition of human partial length KIT V559D mutant (Y545 to D952 residues) expressed in bacterial expression system at 1 uM by Kinomescan method relative to control.
For assay [25], the target named is Casein kinase I isoform gamma-3 (Homo sapiens) (UniProt Q9Y6M4). Nature of the assay: Inhibition of wild-type human full length CSNK1G3 (M1 to K447 residues) expressed in bacterial expression system at 1 uM by Kinomescan method relative to control.
Assay [26] addresses Serine/threonine-protein kinase TAO2 (Homo sapiens) (UniProt Q9UL54). Nature of the assay: Inhibition of wild-type human partial length TAOK2 (M1 to A320 residues) expressed in mammalian expression system at 1 uM by Kinomescan method relative to control.
For assay [27], the target named is Ephrin type-B receptor 3 (Homo sapiens) (UniProt P54753). Nature of the assay: Inhibition of wild-type human partial length EPHB3 (Q599 to T928 residues) expressed in bacterial expression system at 1 uM by Kinomescan method relative to control.

The structures appear in SMILES notation.

Sequence of Serine/threonine-protein kinase Nek1 (Homo sapiens) (Q96PY6 whole entry, the tested form may be a part): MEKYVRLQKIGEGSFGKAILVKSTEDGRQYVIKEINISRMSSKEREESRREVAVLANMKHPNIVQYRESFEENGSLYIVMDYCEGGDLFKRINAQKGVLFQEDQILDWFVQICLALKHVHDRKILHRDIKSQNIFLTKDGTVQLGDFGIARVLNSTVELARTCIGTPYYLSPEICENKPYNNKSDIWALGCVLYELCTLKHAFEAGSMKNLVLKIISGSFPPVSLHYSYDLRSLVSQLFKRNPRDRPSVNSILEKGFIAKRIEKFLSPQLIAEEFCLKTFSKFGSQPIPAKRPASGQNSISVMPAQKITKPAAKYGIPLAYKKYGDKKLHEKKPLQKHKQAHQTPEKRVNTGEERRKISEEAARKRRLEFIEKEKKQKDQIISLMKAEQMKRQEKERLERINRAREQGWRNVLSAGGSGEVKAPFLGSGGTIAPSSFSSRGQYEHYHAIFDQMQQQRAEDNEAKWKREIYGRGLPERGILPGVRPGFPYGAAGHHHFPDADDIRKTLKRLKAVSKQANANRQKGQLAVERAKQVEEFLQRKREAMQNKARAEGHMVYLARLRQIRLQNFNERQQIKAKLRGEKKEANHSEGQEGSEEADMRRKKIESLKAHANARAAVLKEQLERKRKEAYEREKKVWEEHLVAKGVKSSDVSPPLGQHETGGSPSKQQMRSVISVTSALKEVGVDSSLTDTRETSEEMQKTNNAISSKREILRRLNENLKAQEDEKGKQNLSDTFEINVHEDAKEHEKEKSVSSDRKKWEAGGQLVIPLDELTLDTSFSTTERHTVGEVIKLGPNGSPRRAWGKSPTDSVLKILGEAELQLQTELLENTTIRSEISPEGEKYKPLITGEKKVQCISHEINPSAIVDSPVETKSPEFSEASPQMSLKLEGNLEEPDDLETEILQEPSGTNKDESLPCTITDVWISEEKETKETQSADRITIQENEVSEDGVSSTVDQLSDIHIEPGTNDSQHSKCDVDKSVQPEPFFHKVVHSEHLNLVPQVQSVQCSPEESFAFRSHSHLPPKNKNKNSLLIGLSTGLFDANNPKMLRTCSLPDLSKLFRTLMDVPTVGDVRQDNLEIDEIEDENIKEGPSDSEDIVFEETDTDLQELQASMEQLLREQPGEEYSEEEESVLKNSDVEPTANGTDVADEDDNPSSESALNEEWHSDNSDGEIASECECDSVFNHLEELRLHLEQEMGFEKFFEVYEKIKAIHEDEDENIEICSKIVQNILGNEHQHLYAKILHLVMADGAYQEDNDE
Sequence of Ephrin type-B receptor 3 (Homo sapiens) (P54753 whole entry, the tested form may be a part): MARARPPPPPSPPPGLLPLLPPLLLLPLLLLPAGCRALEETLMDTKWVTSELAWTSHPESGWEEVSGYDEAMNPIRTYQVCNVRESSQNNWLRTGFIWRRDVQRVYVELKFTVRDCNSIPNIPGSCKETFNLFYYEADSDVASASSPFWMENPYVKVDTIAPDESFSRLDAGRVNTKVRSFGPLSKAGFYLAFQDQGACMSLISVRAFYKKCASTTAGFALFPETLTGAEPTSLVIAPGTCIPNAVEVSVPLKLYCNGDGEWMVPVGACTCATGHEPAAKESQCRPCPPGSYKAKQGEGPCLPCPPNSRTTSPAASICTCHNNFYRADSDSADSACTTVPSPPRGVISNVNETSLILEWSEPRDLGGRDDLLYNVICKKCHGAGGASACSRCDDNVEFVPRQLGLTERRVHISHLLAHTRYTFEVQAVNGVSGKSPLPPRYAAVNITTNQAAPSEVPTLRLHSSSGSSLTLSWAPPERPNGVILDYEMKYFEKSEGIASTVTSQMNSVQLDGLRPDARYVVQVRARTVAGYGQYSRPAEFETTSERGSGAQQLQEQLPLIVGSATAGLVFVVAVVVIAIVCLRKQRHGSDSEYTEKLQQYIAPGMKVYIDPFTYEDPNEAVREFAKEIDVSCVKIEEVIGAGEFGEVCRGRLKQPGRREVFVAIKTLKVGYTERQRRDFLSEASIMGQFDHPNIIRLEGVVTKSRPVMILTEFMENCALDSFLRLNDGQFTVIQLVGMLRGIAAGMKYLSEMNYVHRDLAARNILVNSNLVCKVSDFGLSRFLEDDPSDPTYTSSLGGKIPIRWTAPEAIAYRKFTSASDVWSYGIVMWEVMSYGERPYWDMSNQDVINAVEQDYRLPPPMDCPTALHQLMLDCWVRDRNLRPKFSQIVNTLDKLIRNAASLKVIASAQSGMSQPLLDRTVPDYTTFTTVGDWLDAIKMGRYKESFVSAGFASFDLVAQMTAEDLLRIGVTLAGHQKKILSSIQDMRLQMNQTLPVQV
Sequence of Mitogen-activated protein kinase kinase kinase 9 (Homo sapiens) (P80192 whole entry, looked up, the tested form may be a part): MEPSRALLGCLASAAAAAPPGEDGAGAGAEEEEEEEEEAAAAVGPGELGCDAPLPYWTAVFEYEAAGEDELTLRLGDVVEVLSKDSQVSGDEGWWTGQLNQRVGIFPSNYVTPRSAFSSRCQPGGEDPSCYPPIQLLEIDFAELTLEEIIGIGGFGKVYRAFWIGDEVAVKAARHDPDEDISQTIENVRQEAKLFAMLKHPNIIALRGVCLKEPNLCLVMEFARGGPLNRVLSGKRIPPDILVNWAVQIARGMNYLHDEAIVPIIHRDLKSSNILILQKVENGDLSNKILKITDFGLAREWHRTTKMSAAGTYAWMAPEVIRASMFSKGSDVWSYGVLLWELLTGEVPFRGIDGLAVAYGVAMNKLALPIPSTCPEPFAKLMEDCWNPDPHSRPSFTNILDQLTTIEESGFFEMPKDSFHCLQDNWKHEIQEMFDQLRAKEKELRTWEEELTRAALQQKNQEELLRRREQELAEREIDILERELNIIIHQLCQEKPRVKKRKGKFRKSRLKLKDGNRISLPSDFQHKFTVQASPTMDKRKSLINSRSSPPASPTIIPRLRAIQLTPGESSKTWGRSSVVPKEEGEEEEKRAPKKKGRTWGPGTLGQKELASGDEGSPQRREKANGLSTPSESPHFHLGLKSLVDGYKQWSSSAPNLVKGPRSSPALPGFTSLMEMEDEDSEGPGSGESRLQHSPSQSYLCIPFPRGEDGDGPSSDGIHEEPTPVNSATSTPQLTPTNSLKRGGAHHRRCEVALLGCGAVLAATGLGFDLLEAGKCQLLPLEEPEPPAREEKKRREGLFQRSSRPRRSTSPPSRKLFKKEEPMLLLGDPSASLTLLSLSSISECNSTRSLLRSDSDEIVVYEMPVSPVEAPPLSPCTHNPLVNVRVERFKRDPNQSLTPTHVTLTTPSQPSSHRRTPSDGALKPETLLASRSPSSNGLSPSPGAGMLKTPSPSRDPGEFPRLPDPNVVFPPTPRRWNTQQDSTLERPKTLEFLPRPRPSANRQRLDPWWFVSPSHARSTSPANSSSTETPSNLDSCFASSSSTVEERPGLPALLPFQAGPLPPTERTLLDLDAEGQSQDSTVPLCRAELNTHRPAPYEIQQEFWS
Sequence of Ephrin type-A receptor 2 (Homo sapiens) (P29317 whole entry, the tested form may be a part): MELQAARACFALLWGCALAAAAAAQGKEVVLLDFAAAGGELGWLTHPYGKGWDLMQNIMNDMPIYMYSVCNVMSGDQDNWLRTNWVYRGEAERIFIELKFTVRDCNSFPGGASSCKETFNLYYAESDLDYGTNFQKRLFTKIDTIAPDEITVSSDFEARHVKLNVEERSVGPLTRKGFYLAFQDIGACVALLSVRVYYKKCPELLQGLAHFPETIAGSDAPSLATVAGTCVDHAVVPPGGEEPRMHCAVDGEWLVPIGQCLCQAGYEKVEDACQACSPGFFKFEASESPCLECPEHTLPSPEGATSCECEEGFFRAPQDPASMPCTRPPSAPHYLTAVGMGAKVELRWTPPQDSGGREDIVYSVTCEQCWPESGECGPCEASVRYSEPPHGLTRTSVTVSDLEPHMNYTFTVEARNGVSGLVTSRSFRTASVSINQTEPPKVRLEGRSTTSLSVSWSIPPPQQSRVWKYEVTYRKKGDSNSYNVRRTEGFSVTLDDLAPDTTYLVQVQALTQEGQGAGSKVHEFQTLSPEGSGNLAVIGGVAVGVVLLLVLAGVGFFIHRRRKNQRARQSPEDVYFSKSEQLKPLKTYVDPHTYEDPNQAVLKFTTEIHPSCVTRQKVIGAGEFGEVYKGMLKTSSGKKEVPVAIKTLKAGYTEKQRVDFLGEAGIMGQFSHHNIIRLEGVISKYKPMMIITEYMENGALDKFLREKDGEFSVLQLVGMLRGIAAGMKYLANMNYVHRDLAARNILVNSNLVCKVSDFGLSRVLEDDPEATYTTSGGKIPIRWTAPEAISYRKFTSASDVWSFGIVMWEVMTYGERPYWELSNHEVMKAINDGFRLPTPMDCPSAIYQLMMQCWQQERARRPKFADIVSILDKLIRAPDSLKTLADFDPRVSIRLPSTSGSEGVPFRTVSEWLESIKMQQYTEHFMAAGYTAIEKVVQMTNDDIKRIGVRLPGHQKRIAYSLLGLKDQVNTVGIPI
Sequence of Dual specificity mitogen-activated protein kinase kinase 7 (Homo sapiens) (O14733 whole entry, the tested form may be a part): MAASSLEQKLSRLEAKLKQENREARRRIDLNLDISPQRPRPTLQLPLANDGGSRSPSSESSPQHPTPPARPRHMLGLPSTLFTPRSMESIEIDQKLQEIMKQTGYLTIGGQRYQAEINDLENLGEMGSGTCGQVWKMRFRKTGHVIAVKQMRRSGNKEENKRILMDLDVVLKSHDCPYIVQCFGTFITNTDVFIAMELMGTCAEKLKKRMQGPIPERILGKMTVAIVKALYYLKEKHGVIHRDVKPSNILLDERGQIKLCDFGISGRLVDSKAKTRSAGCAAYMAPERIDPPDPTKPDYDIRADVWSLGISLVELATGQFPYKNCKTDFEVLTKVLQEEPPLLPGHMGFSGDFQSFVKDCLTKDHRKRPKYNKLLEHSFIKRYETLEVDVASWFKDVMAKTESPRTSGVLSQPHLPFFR

On to `O=C(Nc1cccc([C@H]2CCCN(c3ncnc4[nH]ccc34)C2)c1)Nc1ccccc1N1CCCC1`, for which the inhibition is 68% in [1]; 0.6% in assay [2]; 100% in [3]; 100% in [4]; 14% in [5]; 75% in [6]. Further, the inhibition in assay [7] was found to be 0.45%; in assay [8] it was 68%; in [9], 57%; in assay [10], 72%.
For the compound `O=C(Nc1cccc([C@@H]2CN(c3ncnc4[nH]ccc34)CCN2CCO)c1)Nc1c(F)cccc1N1CCCC1`, the inhibition came out at 72% in [11]; 76% in assay [12]; 0.95% in [13]; 74% in assay [14]; 61% in [15]; 100% in [16]. The inhibition came to 100% in assay [17]; 100% in assay [18]; 98% in assay [19]; 30% in assay [20]; 86% in assay [21]; 92% in assay [22]. Also, the inhibition worked out at 80% in [23]; 40% in assay [24]; 94% in [25]; 85% in assay [26]; 100% in assay [27].

The term inhibition denotes the drop in the measured response relative to a control, in per cent.

The values above are taken from ChEMBL document CHEMBL4387741, “Optimization of novel reversible Bruton's tyrosine kinase inhibitors identified using Tethering-fragment-based screens” (Bioorg Med Chem, 2019).
